How the values were obtained:
[1] = Metabolic stability in human liver microsomes by HPLC-MS/MS; type: ADME, Microsome
Progesterone receptor = molecular target: T1, Progesterone receptor (Homo sapiens, UniProt P06401); test: Binding affinity to PR
T1 sequence (P06401 whole entry): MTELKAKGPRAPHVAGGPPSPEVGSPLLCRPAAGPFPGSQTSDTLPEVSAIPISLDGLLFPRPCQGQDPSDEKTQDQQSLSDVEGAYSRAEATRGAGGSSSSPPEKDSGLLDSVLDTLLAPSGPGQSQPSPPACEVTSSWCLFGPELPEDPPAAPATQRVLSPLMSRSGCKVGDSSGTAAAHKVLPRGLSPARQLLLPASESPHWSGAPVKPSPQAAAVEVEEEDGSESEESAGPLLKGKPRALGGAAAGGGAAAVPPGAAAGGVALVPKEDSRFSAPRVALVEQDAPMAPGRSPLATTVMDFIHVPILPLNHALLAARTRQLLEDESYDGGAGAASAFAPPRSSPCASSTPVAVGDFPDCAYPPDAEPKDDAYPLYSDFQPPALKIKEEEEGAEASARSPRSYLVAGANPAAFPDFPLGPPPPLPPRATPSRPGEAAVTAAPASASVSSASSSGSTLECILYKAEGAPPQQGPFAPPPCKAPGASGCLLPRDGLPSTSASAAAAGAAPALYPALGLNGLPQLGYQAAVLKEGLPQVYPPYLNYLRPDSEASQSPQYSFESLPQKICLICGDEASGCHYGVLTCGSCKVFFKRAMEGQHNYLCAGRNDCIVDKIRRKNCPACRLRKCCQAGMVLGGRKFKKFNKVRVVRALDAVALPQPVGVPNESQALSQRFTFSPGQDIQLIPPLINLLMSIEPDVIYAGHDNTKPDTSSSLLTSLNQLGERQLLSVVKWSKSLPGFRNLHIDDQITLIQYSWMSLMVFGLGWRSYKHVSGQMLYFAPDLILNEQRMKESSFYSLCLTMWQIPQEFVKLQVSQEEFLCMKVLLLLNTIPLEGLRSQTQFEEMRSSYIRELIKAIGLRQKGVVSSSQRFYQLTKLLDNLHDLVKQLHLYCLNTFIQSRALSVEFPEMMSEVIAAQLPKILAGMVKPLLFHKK

[2] = Selectivity ratio of Ki for GR to Ki for PR
Glucocorticoid receptor [3] = molecular target: T2, Glucocorticoid receptor (Homo sapiens, UniProt P04150); test: Agonist activity at human GR expressed in NHDF cells assessed as inhibition of IL-6 production by ELISA relative to Dexamethasone; type: functional, cell-based
T2 sequence (P04150 whole entry): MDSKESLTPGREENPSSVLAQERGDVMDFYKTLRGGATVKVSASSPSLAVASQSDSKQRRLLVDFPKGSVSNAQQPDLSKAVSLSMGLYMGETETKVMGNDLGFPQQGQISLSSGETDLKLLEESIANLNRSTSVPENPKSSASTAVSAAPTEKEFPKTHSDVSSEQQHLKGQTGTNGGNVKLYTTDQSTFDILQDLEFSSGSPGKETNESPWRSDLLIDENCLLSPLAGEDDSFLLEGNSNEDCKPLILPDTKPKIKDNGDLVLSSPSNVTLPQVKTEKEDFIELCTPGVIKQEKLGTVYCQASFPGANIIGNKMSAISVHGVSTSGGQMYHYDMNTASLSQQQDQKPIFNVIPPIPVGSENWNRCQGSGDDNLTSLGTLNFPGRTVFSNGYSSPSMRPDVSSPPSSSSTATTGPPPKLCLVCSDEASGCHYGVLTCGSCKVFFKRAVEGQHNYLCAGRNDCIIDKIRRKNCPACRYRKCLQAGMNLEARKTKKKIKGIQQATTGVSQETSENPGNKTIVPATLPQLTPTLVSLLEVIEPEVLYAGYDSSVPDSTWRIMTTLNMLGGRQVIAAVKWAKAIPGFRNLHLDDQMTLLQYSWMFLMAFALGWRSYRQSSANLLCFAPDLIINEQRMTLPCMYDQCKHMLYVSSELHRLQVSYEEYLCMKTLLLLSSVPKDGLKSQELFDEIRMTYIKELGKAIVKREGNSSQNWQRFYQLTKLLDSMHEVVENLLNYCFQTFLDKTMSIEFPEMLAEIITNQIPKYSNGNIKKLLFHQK

[4] = Metabolic stability in CD-1 […] liver microsomes by HPLC-MS/MS; type: ADME, Microsome; conditions: CD-1, liver microsomes
Glucocorticoid receptor [5] = molecular target: T2, Glucocorticoid receptor; test: Agonist activity at GR expressed in african green monkey CV1 cells transfected with luciferase gene linked to MMTV promoter assessed as induction of luciferase transactivation activity relative to Dexamethasone; type: functional, cell-based, CV-1
Glucocorticoid receptor [6] = molecular target: T2, Glucocorticoid receptor; test: Displacement of radiolabeled Dexamethasone from GR
Glucocorticoid receptor [7] = molecular target: T2, Glucocorticoid receptor; test: Agonist activity at GR expressed in IL-1beta- and TNFalpha-stimulated HepG2 cells assessed as inhibition of NFKB- or AP-1 mediated E-selectin transcription by luciferase reporter gene assay relative to Dexamethasone; type: functional, cell-based

Cc1c(Cl)c(-c2cccc3cc[nH]c23)cc2c1NC(C)(C)[C@H](O)[C@H]2C (racemic) gave a half-life [1] of 21 min, a Ki (Progesterone receptor) of 190 nM and a Ratio Ki [2] greater than 100. The IC50 (Glucocorticoid receptor [3]) was 26 nM, the half-life [4] was 25 min and the EC50 (Glucocorticoid receptor [5]) was 36 nM. It also gave a Ki (Glucocorticoid receptor [6]) of 1.8 nM and an IC50 (Glucocorticoid receptor [7]) of 21 nM.
Compound C=Cc1c(-c2cccc3cc[nH]c23)cc2c(c1C)NC(C)(C)[C@H](O)[C@H]2C (racemic) has an IC50 (Glucocorticoid receptor [3]) greater than 1000 nM, an EC50 (Glucocorticoid receptor [5]) of 18 nM and a Ki (Glucocorticoid receptor [6]) of 3.1 nM. The IC50 (Glucocorticoid receptor [7]) was 13 nM.
Compound Cc1cc(-c2cccc3cc[nH]c23)c(C#N)c2c1NC(C)(C)[C@H](O)[C@H]2C (racemic) has a half-life [1] of 13 min, an IC50 (Glucocorticoid receptor [3]) of 16 nM and a half-life [4] of 13 min. The EC50 (Glucocorticoid receptor [5]) was 9.6 nM, the Ki (Glucocorticoid receptor [6]) was 1.3 nM and the IC50 (Glucocorticoid receptor [7]) was 5.3 nM.
In the case of Cc1cc(-c2cccc3cc[nH]c23)c(/C=C/C#N)c2c1NC(C)(C)[C@H](O)[C@H]2C (racemic), the IC50 (Glucocorticoid receptor [3]) is reported as 16 nM, the EC50 (Glucocorticoid receptor [5]) is reported as 5.7 nM and the Ki (Glucocorticoid receptor [6]) is reported as 16.6 nM. For the same compound, the IC50 (Glucocorticoid receptor [7]) was 6.5 nM.
For CC(=O)/C=C/c1c(-c2cccc3cc[nH]c23)cc(C)c2c1[C@H](C)[C@@H](O)C(C)(C)N2 (racemic), the IC50 (Glucocorticoid receptor [3]) was greater than 1000 nM, the EC50 (Glucocorticoid receptor [5]) was 112 nM and the Ki (Glucocorticoid receptor [6]) was 10.4 nM. It also gave an IC50 (Glucocorticoid receptor [7]) of 7.8 nM.
For Cc1cc(-c2cccc3cc[nH]c23)c(C)c2c1NC(C)(C)[C@H](O)[C@H]2C (racemic), the IC50 (Glucocorticoid receptor [3]) was 9.3 nM, the EC50 (Glucocorticoid receptor [5]) was 0.9 nM and the Ki (Glucocorticoid receptor [6]) was 1.2 nM. The IC50 (Glucocorticoid receptor [7]) was 4.7 nM.
Compound CCO/N=C/c1c(-c2cccc3cc[nH]c23)cc(C)c2c1[C@H](C)[C@@H](O)C(C)(C)N2 (racemic) has an IC50 (Glucocorticoid receptor [3]) of 3.4 nM, an EC50 (Glucocorticoid receptor [5]) of 0.2 nM and a Ki (Glucocorticoid receptor [6]) of 1.5 nM. It also gave an IC50 (Glucocorticoid receptor [7]) of 0.9 nM.
For Cc1c(-c2cccc3cc[nH]c23)cc2c(c1C)NC(C)(C)[C@H](O)[C@H]2C (racemic), the IC50 (Glucocorticoid receptor [3]) was greater than 1000 nM, the EC50 (Glucocorticoid receptor [5]) was 205 nM and the Ki (Glucocorticoid receptor [6]) was 38.3 nM. For the same compound, the IC50 (Glucocorticoid receptor [7]) was 42 nM.
C[C@H]1c2c(F)c(-c3cccc4cc[nH]c34)c(F)c(F)c2NC(C)(C)[C@@H]1O (racemic) showed an IC50 (Glucocorticoid receptor [3]) of 19 nM, an EC50 (Glucocorticoid receptor [5]) of 16 nM and a Ki (Glucocorticoid receptor [6]) of 5 nM. It also gave an IC50 (Glucocorticoid receptor [7]) of 3.8 nM.
With Cc1cc(-c2cccc3cc[nH]c23)cc2c1NC(C)(C)[C@H](O)[C@H]2C (racemic) the IC50 (Glucocorticoid receptor [3]) was greater than 1000 nM, the EC50 (Glucocorticoid receptor [5]) was 108 nM and the Ki (Glucocorticoid receptor [6]) was 9 nM. The IC50 (Glucocorticoid receptor [7]) was 21 nM.
With C=Cc1c(-c2cccc3cc[nH]c23)cc(C)c2c1[C@H](C)[C@@H](O)C(C)(C)N2 (racemic) the IC50 (Glucocorticoid receptor [3]) was greater than 1000 nM, the EC50 (Glucocorticoid receptor [5]) was 40 nM and the Ki (Glucocorticoid receptor [6]) was 19.6 nM. It also gave an IC50 (Glucocorticoid receptor [7]) greater than 1000 nM.
In the case of Cc1cc(-c2cccc3cc[nH]c23)c(/C=N/OC(C)(C)C)c2c1NC(C)(C)[C@H](O)[C@H]2C (racemic), the IC50 (Glucocorticoid receptor [3]) is reported as 3.8 nM, the EC50 (Glucocorticoid receptor [5]) is reported as 34 nM and the Ki (Glucocorticoid receptor [6]) is reported as 6 nM. The IC50 (Glucocorticoid receptor [7]) was 5.5 nM.
Compound CCc1c(-c2cccc3cc[nH]c23)cc(C)c2c1[C@H](C)[C@@H](O)C(C)(C)N2 (racemic) has an IC50 (Glucocorticoid receptor [3]) greater than 1000 nM, an EC50 (Glucocorticoid receptor [5]) of 16 nM and a Ki (Glucocorticoid receptor [6]) of 11.7 nM. For the same compound, the IC50 (Glucocorticoid receptor [7]) was 15 nM.
Compound C[C@H]1c2c(Cl)c(-c3cccc4cc[nH]c34)cc(F)c2NC(C)(C)[C@@H]1O (racemic) has a half-life [1] of 15 min, an IC50 (Glucocorticoid receptor [3]) of 14 nM and a half-life [4] of 3.8 min. It also gave an EC50 (Glucocorticoid receptor [5]) of 89 nM, a Ki (Glucocorticoid receptor [6]) of 8 nM and an IC50 (Glucocorticoid receptor [7]) of 17 nM.
Work on Cc1cc(-c2cccc3cc[nH]c23)c(Cl)c2c1NC(C)(C)[C@H](O)[C@H]2C (racemic) yielded a half-life [1] of 4.7 min and a half-life [4] of 3.3 min.
Work on C[C@H]1c2c(F)c(-c3cccc4cc[nH]c34)c(F)c(Cl)c2NC(C)(C)[C@@H]1O (racemic) yielded an IC50 (Glucocorticoid receptor [3]) of 16 nM, an EC50 (Glucocorticoid receptor [5]) of 1.3 nM and a Ki (Glucocorticoid receptor [6]) of 1 nM. The IC50 (Glucocorticoid receptor [7]) was 3.9 nM.
Work on C[C@H]1c2c(cc(Cl)c(-c3cccc4cc[nH]c34)c2Cl)NC(C)(C)[C@@H]1O (racemic) yielded an IC50 (Glucocorticoid receptor [3]) greater than 1000 nM, an EC50 (Glucocorticoid receptor [5]) of 480 nM and a Ki (Glucocorticoid receptor [6]) of 157 nM. For the same compound, the IC50 (Glucocorticoid receptor [7]) was 301 nM.
Cc1c2c(cc(-c3cccc4cc[nH]c34)c1C(F)(F)F)[C@H](C)[C@@H](O)C(C)(C)N2 (racemic) gave an IC50 (Glucocorticoid receptor [3]) greater than 1000 nM, an EC50 (Glucocorticoid receptor [5]) greater than 1000 nM and a Ki (Glucocorticoid receptor [6]) of 106 nM. The IC50 (Glucocorticoid receptor [7]) was greater than 1000 nM.
For Cc1c(F)c(-c2cccc3cc[nH]c23)cc2c1NC(C)(C)[C@H](O)[C@H]2C (racemic), the half-life [1] was 17 min, the IC50 (Glucocorticoid receptor [3]) was 4.1 nM and the half-life [4] was 16 min. The EC50 (Glucocorticoid receptor [5]) was 40 nM, the Ki (Glucocorticoid receptor [6]) was 0.9 nM and the IC50 (Glucocorticoid receptor [7]) was 1.7 nM.
C[C@H]1c2cc(-c3cccc4cc[nH]c34)c(F)c(F)c2NC(C)(C)[C@@H]1O (racemic) showed an IC50 (Glucocorticoid receptor [3]) of 20 nM, an EC50 (Glucocorticoid receptor [5]) of 11 nM and a Ki (Glucocorticoid receptor [6]) of 2.4 nM. It also gave an IC50 (Glucocorticoid receptor [7]) of 7.7 nM.
In the case of Cc1cc(-c2cccc3cc[nH]c23)c(F)c2c1NC(C)(C)[C@H](O)[C@H]2C (racemic), the IC50 (Glucocorticoid receptor [3]) is reported as 7.1 nM, the EC50 (Glucocorticoid receptor [5]) is reported as 56 nM and the Ki (Glucocorticoid receptor [6]) is reported as 2.3 nM. It also gave an IC50 (Glucocorticoid receptor [7]) of 5.9 nM.
In the case of CO/N=C/c1c(-c2cccc3cc[nH]c23)cc(C)c2c1[C@H](C)[C@@H](O)C(C)(C)N2 (racemic), the IC50 (Glucocorticoid receptor [3]) is reported as 4.2 nM, the EC50 (Glucocorticoid receptor [5]) is reported as 0.4 nM and the Ki (Glucocorticoid receptor [6]) is reported as 6.9 nM. It also gave an IC50 (Glucocorticoid receptor [7]) of 1.7 nM.
With Cc1cc(-c2cccc3cc[nH]c23)c(/C=N/O)c2c1NC(C)(C)[C@H](O)[C@H]2C (racemic) the IC50 (Glucocorticoid receptor [3]) was greater than 1000 nM, the EC50 (Glucocorticoid receptor [5]) was 105 nM and the Ki (Glucocorticoid receptor [6]) was 319 nM. It also gave an IC50 (Glucocorticoid receptor [7]) of 11 nM.
For Cc1cc(-c2cccc3cc[nH]c23)c(/C=N/OCc2ccccc2)c2c1NC(C)(C)[C@H](O)[C@H]2C (racemic), the IC50 (Glucocorticoid receptor [3]) was 14.4 nM, the EC50 (Glucocorticoid receptor [5]) was 3.7 nM and the Ki (Glucocorticoid receptor [6]) was 3.5 nM. It also gave an IC50 (Glucocorticoid receptor [7]) of 3.1 nM.

From ChEMBL document CHEMBL1681726, “Discovery of orally available tetrahydroquinoline-based glucocorticoid receptor agonists” (Bioorg Med Chem Lett, 2011)
